Laboratory results reported in US20220298186A1, “BIARYL DIALKYL PHOSPHINE OXIDE FPR2 AGONISTS” (BRISTOL-MYERS SQUIBB COMPANY, priority 2019, published 2022).

Legend:
human FPR2 receptors = target: T1, human FPR2 receptors (Homo sapiens, UniProt P25090); experiment: FPR2 cyclic adenosine monophosphate (cAMP) assay; assay type: cell-based; details: CHO cells overexpressing human FPR2; forskolin 5 μM, IBMX 200 μM; 30 min at rt; inhibition of cAMP production (HTRF); read-out: hFPR2 cAMP2 EC50
T1 sequence (P25090 1-351): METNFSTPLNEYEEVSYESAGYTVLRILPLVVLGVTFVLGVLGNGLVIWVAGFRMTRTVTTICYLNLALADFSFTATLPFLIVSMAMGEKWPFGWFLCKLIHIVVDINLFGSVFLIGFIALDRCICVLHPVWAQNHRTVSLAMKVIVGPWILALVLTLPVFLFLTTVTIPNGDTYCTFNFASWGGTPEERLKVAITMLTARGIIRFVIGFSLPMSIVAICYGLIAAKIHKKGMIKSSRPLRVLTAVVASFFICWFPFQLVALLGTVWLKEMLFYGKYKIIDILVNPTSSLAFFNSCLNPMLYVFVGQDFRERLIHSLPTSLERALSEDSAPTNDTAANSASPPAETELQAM
Text: (§1) N-formyl peptide receptors (FPRs) are a family of chemo attractant receptors that facilitate leukocyte response during inflammation. FPRs belong to the seven-transmembrane G protein-coupled receptor superfamily and are linked to inhibitory G-proteins (Gi). Three family members (FPR1, FPR2 and FPR3) have been identified in humans and are predominantly found in myeloid cells with varied distribution and have also been reported in multiple organs and tissues. After agonist binding, the FPRs activate a multitude of physiological pathways, such as intra cellular signaling transduction, Ca^2+ mobilization and transcription. The family interacts with a diverse set of ligands that includes proteins, polypeptides and fatty acid metabolites which activate both pro-inflammatory and pro-resolution downstream responses. FPR2 and FPR1 Cyclic Adenosine Monophosphate (cAMP) Assays were used to measure the activity of the compounds in this patent.
(§2) FPR2 and FPR1 Cyclic Adenosine Monophosphate (cAMP) Assays. A mixture of forskolin (5 μM final for FPR2 or 10 μM final for FPR1) and IBMX (200 μM final) were added to 384-well Proxiplates (Perkin-Elmer) pre-dotted with test compounds in DMSO (1% final) at final concentrations in the range of 0.020 nM to 100 μM. Chinese Hamster Ovary cells (CHO) overexpressing human FPR1 or human FPR2 receptors were cultured in F-12 (Ham's) medium supplemented with 10% qualified FBS, 250 μg/mL zeocin and 300 μg/mL hygromycin (Life Technologies). Reactions were initiated by adding 2,000 human FPR2 cells per well or 4,000 human FPR1 cells per well in Dulbecco's PBS (with calcium and magnesium) (Life Technologies) supplemented with 0.1% BSA (Perkin-Elmer). The reaction mixtures were incubated for 30 min at rt. The level of intracellular cAMP was determined using the HTRF HiRange cAMP assay reagent kit (Cisbio) according to manufacturer's instruction. Solutions of cryptate conjugated anti-cAMP and d2 flurorophore-labelled cAMP were made in a supplied lysis buffer separately. Upon completion of the reaction, the cells were lysed with equal volume of the d2-cAMP solution and anti-cAMP solution. After a 1-h rt incubation, time-resolved fluorescence intensity was measured using the Envision (Perkin-Elmer) at 400 nm excitation and dual emission at 590 nm and 665 nm. A calibration curve was constructed with an external cAMP standard at concentrations ranging from 1 μM to 0.1 μM by plotting the fluorescent intensity ratio from 665 nm emission to the intensity from the 590 nm emission against cAMP concentrations. The potency and activity of a compound to inhibit cAMP production was then determined by fitting to a 4-parametric logistic equation from a plot of cAMP level versus compound concentrations.
(§3) The examples disclosed below were tested in the FPR2 and FPR1 cAMP assay described above and found having FPR2 and/or FPR1 agonist activity. Table 1 below lists EC50 values in the FPR2 and FPR1 cAMP assays measured for the following examples.

human FPR1 receptors = target: T2, human FPR1 receptors (Homo sapiens, UniProt P21462); experiment: FPR1 cyclic adenosine monophosphate (cAMP) assay; assay type: cell-based; details: CHO cells overexpressing human FPR1; forskolin 10 μM, IBMX 200 μM; 30 min at rt; inhibition of cAMP production (HTRF); read-out: hFPR1 cAMP EC50
T2 sequence (P21462 1-350): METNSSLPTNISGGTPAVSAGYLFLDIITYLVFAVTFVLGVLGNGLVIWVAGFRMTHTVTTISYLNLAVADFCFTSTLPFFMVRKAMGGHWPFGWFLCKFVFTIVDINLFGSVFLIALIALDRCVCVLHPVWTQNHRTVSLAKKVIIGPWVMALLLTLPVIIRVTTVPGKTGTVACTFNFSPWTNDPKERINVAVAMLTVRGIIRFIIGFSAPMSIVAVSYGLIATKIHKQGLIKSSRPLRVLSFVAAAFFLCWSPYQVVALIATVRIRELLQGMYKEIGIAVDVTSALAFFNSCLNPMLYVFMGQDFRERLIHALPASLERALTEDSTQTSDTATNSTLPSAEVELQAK
Text: as §1, §2, §3

| EC50 (human FPR2 receptors) [nM] | EC50 (human FPR1 receptors) [nM] | Structure (SMILES) |
| --- | --- | --- |
| 8.6 | > 10000 | CP(C)(=O)c1ccccc1-c1cc(F)c(N2CCC[C@@H](NC(=O)Nc3cnc(Cl)cn3)C2=O)c(F)c1 [Example 17, 1-(5-Chloropyrazin-2-yl)-3-[(3R)-1-[2′-(dimethylphosphoryl)-3,5-difluoro-[1,1′-biphenyl]-4-yl]-2-oxopiperidin-3-yl]urea] |
| 0.76 | 17 | CP(C)(=O)c1ccccc1-c1ccc(N2CCC[C@@H](NC(=O)Nc3ccc(Cl)cc3F)C2=O)c(C2CC2)c1 [Example 5, 1-(4-Chloro-2-fluorophenyl)-3-[(3R)-1-[3-cyclopropyl-2′-(dimethylphosphoryl)-[1,1′-biphenyl]-4-yl]-2-oxopiperidin-3-yl]urea] |
